Laboratory results from ChEMBL document CHEMBL3817755, “Design, synthesis and biological evaluation of indazolepyrimidine based derivatives as anticancer agents with anti-angiogenic and antiproliferative activities” (Medchemcomm, 2016).

Key:
[1] = target: Vascular endothelial growth factor receptor 2 (Homo sapiens, UniProt P35968); experiment: Inhibition of VEGFR-2 (unknown origin) after 40 mins by Kinase-GloPlus luminescence assay
[2] = Growth inhibition of human HL-60(TB) cells after 48 hrs by SRB assay; format: functional; details: HL-60, 48 h
[3] = system: K562; experiment: Growth inhibition of human K562 cells after 48 hrs by SRB assay; format: functional; details: K562, 48 h
[4] = system: A549; experiment: Growth inhibition of human A549/ATCC cells after 48 hrs by SRB assay; format: functional; details: A549, 48 h
[5] = Growth inhibition of human HOP92 cells after 48 hrs by SRB assay; format: functional; details: HOP-92, 48 h
[6] = system: NCI-H23; experiment: Growth inhibition of human NCI-H23 cells after 48 hrs by SRB assay; format: functional; details: NCI-H23, 48 h
[7] = system: NCI-H322M; experiment: Growth inhibition of human NCI-H322M cells after 48 hrs by SRB assay; format: functional
[8] = system: NCI-H460; experiment: Growth inhibition of human NCI-H460 cells after 48 hrs by SRB assay; format: functional; details: NCI-H460, 48 h
[9] = system: NCI-H522; experiment: Growth inhibition of human NCI-H522 cells after 48 hrs by SRB assay; format: functional; details: NCI-H522, 48 h
[10] = Growth inhibition of human COLO205 cells after 48 hrs by SRB assay; format: functional; details: COLO 205, 48 h
[11] = Growth inhibition of human HCT116 cells after 48 hrs by SRB assay; format: functional; details: HCT-116, 48 h
[12] = Growth inhibition of human HCT15 cells after 48 hrs by SRB assay; format: functional; details: HCT-15, 48 h
[13] = system: HT-29; experiment: Growth inhibition of human HT-29 cells after 48 hrs by SRB assay; format: functional; details: HT-29, 48 h
[14] = system: KM12; experiment: Growth inhibition of human KM12 cells after 48 hrs by SRB assay; format: functional; details: KM12, 48 h
[15] = Growth inhibition of human SW620 cells after 48 hrs by SRB assay; format: functional; details: SW-620, 48 h
[16] = Growth inhibition of human SNB75 cells after 48 hrs by SRB assay; format: functional; details: SNB-75, 48 h
[17] = system: U-251; experiment: Growth inhibition of human U251 cells after 48 hrs by SRB assay; format: functional; details: U-251, 48 h
[18] = Growth inhibition of human LOXIMVI cells after 48 hrs by SRB assay; format: functional; details: LOX IMVI
[19] = system: M14; experiment: Growth inhibition of human M14 cells after 48 hrs by SRB assay; format: functional; details: M14, 48 h
[20] = system: SK-MEL-2; experiment: Growth inhibition of human SK-MEL-2 cells after 48 hrs by SRB assay; format: functional; details: SK-MEL-2, 48 h
[21] = Growth inhibition of human UACC257 cells after 48 hrs by SRB assay; format: functional; details: UACC-257, 48 h
[22] = Growth inhibition of human OVCAR5 cells after 48 hrs by SRB assay; format: functional; details: OVCAR-5, 48 h
[23] = Growth inhibition of human OVCAR8 cells after 48 hrs by SRB assay; format: functional; details: OVCAR-8, 48 h
[24] = Growth inhibition of human NCI-ADR-RES cells after 48 hrs by SRB assay; format: functional
[25] = Growth inhibition of human SKOV3 cells after 48 hrs by SRB assay; format: functional; details: SK-OV-3, 48 h
[26] = system: A498; experiment: Growth inhibition of human A498 cells after 48 hrs by SRB assay; format: functional; details: A498, 48 h
[27] = Growth inhibition of human Caki1 cells after 48 hrs by SRB assay; format: functional; details: CAKI-1, 48 h
[28] = Growth inhibition of human RXF393 cells after 48 hrs by SRB assay; format: functional; details: RXF 393, 48 h
[29] = Growth inhibition of human PC3 cells after 48 hrs by SRB assay; format: functional; details: PC-3, 48 h
[30] = Growth inhibition of human DU145 cells after 48 hrs by SRB assay; format: functional; details: DU-145, 48 h
[31] = system: MCF7; experiment: Growth inhibition of human MCF7 cells after 48 hrs by SRB assay; format: functional; details: MCF7, 48 h
[32] = system: T47D; experiment: Growth inhibition of human T47D cells after 48 hrs by SRB assay; format: functional
[33] = system: MDA-MB-468; experiment: Growth inhibition of human MDA-MB-468 cells after 48 hrs by SRB assay; format: functional; details: MDA-MB-468, 48 h
[34] = target: Aurora kinase A (Homo sapiens) (UniProt O14965); experiment: Inhibition of Aurora A (unknown origin) at 10 uM
Sequence of Aurora kinase A (Homo sapiens) (O14965 whole entry): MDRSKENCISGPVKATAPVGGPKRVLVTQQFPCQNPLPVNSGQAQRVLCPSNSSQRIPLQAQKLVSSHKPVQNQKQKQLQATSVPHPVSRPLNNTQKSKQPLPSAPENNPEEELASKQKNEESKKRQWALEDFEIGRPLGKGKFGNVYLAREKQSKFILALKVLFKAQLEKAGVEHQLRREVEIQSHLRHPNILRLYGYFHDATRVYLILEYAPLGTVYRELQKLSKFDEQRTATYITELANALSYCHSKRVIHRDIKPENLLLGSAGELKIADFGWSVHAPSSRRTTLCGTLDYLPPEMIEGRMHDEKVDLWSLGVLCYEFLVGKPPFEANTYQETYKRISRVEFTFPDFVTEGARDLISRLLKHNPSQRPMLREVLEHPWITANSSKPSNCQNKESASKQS

[35] = Antiangiogenic activity in human PC3 cells assessed as reduction in EGF levels at […] +/- […] uM after 72 hrs by ELISA relative to control; format: functional, PC-3; parameters: scale not given: the % may be the effect or the level left
[36] = read-out: LC50 (the source's name)

Sequence of Vascular endothelial growth factor receptor 2 (P35968 whole entry): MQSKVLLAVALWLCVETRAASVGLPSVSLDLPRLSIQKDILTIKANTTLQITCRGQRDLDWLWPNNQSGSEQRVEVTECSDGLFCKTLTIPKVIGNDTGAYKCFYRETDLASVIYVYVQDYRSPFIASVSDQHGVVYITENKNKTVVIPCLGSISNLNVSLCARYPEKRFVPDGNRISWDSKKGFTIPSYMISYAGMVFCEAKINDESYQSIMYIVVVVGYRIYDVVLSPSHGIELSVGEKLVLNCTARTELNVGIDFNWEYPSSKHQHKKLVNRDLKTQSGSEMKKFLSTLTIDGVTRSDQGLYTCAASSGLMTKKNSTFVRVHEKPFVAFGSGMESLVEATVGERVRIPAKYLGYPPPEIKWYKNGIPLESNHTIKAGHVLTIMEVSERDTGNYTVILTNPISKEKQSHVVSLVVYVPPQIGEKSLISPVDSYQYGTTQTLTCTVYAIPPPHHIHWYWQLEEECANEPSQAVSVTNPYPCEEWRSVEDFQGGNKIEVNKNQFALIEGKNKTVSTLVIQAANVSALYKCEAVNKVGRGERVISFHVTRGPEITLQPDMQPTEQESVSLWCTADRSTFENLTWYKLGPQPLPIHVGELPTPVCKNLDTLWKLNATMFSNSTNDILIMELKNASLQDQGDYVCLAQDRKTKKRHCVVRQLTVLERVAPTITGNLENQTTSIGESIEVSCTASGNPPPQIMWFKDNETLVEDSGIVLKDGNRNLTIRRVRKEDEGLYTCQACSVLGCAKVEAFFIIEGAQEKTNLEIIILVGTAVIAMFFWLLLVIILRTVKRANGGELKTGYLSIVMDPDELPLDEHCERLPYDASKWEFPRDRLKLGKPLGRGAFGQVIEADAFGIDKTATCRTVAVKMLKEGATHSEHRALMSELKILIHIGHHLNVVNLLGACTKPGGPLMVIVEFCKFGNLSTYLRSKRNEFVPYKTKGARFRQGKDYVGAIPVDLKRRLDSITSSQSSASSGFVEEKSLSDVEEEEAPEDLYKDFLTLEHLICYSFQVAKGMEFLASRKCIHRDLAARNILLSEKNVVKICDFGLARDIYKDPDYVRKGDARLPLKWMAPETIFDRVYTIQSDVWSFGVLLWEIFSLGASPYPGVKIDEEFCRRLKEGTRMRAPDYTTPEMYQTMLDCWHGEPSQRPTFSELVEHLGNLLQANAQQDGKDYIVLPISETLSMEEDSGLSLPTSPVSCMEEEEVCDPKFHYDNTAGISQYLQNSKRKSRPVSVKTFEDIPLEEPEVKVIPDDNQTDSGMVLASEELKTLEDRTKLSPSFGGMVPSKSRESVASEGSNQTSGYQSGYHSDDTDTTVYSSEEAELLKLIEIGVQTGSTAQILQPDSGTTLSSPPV

Question: With `COc1ccc(Nc2nccc(Nc3ccc4[nH]ncc4c3)n2)cc1` as the molecule, how does the IC50 [1] read?
Answer: 0.117 µM

Question: What about the GI50 [2] of the same molecule?
Answer: 2.05 µM

Question: What about the LC50 [2] of the same molecule?
Answer: > 100 µM

Question: What about the TGI [2] of the same molecule?
Answer: 4.67 µM

Question: What about the GI50 [3] of the same molecule?
Answer: 2.1 µM

Question: What about the LC50 [3] of the same molecule?
Answer: > 100 µM

Question: What about the TGI [3] of the same molecule?
Answer: 4.67 µM

Question: What about the GI50 [4] of the same molecule?
Answer: 3.46 µM

Question: And the TGI [4]?
Answer: 14.3 µM

Question: What about the CC50 [4, 36] of the same molecule?
Answer: 78.8 µM

Question: What about the GI50 [5] of the same molecule?
Answer: 3.13 µM

Question: And the TGI [5]?
Answer: 12.9 µM

Question: And the CC50 [5, 36]?
Answer: 44.5 µM

Question: And the GI50 [6]?
Answer: 2.35 µM

Question: And the TGI [6]?
Answer: 6.27 µM

Question: And the CC50 [6, 36]?
Answer: 87.3 µM

Question: What about the GI50 [7] of the same molecule?
Answer: 4.48 µM

Question: And the TGI [7]?
Answer: 38.2 µM

Question: What about the CC50 [7, 36] of the same molecule?
Answer: > 100 µM

Question: And the GI50 [8]?
Answer: 2.7 µM

Question: And the LC50 (50% lethal concentration) [8]?
Answer: > 100 µM

Question: And the TGI [8]?
Answer: 38.2 µM

Question: What about the GI50 [9] of the same molecule?
Answer: 1.86 µM

Question: What about the LC50 [9] of the same molecule?
Answer: 15.6 µM

Question: And the TGI [9]?
Answer: 4.77 µM

Question: And the GI50 [10]?
Answer: 2.59 µM

Question: What about the LC50 [10] of the same molecule?
Answer: 25.4 µM

Question: What about the TGI [10] of the same molecule?
Answer: 7.21 µM

Question: What about the GI50 [11] of the same molecule?
Answer: 2.06 µM

Question: What about the TGI [11] of the same molecule?
Answer: 4.91 µM

Question: And the CC50 [11, 36]?
Answer: 73.1 µM

Question: And the GI50 [12]?
Answer: 1.9 µM

Question: What about the LC50 [12] of the same molecule?
Answer: 9.61 µM

Question: And the TGI [12]?
Answer: 4.28 µM

Question: What about the GI50 [13] of the same molecule?
Answer: 2.36 µM

Question: And the TGI [13]?
Answer: 8.33 µM

Question: And the CC50 [13, 36]?
Answer: 39.7 µM

Question: And the GI50 [14]?
Answer: 3.45 µM

Question: And the TGI [14]?
Answer: 24.2 µM

Question: What about the CC50 [14, 36] of the same molecule?
Answer: > 100 µM

Question: And the GI50 [15]?
Answer: 3.31 µM

Question: What about the TGI [15] of the same molecule?
Answer: > 100 µM

Question: What about the CC50 [15, 36] of the same molecule?
Answer: > 100 µM

Question: What about the GI50 [16] of the same molecule?
Answer: 4.58 µM

Question: And the LC50 [16]?
Answer: 51.7 µM

Question: What about the TGI [16] of the same molecule?
Answer: 20.3 µM

Question: What about the GI50 [17] of the same molecule?
Answer: 3.61 µM

Question: And the TGI [17]?
Answer: 13.6 µM

Question: What about the CC50 [17, 36] of the same molecule?
Answer: 36.9 µM

Question: And the GI50 [18]?
Answer: 1.92 µM

Question: And the LC50 [18]?
Answer: 7.8 µM

Question: And the TGI [18]?
Answer: 3.87 µM

Question: And the GI50 [19]?
Answer: 2.39 µM

Question: And the TGI [19]?
Answer: 6.15 µM

Question: What about the CC50 [19, 36] of the same molecule?
Answer: 21.2 µM

Question: What about the GI50 [20] of the same molecule?
Answer: 2.4 µM

Question: And the LC50 [20]?
Answer: 29.8 µM

Question: What about the TGI [20] of the same molecule?
Answer: 6.39 µM

Question: And the GI50 [21]?
Answer: 5.41 µM

Question: And the TGI [21]?
Answer: 16.9 µM

Question: What about the CC50 [21, 36] of the same molecule?
Answer: 41.1 µM

Question: What about the GI50 [22] of the same molecule?
Answer: 3.33 µM

Question: And the TGI [22]?
Answer: > 100 µM

Question: What about the CC50 [22, 36] of the same molecule?
Answer: > 100 µM

Question: And the GI50 [23]?
Answer: 2.24 µM

Question: What about the TGI [23] of the same molecule?
Answer: 5.39 µM

Question: And the CC50 [23, 36]?
Answer: > 100 µM

Question: What about the GI50 [24] of the same molecule?
Answer: 2.18 µM

Question: And the LC50 [24]?
Answer: 29.4 µM

Question: And the TGI [24]?
Answer: 5.75 µM

Question: And the GI50 [25]?
Answer: 7.04 µM

Question: What about the LC50 [25] of the same molecule?
Answer: 58.8 µM

Question: What about the TGI [25] of the same molecule?
Answer: 21.7 µM

Question: And the GI50 [26]?
Answer: 4.62 µM

Question: What about the TGI [26] of the same molecule?
Answer: 17.2 µM

Question: And the CC50 [26, 36]?
Answer: 41.4 µM

Question: And the GI50 [27]?
Answer: 2.22 µM

Question: And the TGI [27]?
Answer: 14.9 µM

Question: And the CC50 [27, 36]?
Answer: 38.6 µM

Question: What about the GI50 [28] of the same molecule?
Answer: 1.98 µM

Question: What about the LC50 (50% lethal concentration) [28] of the same molecule?
Answer: 24.3 µM

Question: And the TGI [28]?
Answer: 6.45 µM

Question: What about the GI50 [29] of the same molecule?
Answer: 2.21 µM

Question: And the LC50 [29]?
Answer: 50.4 µM

Question: And the TGI [29]?
Answer: 7.2 µM

Question: What about the GI50 [30] of the same molecule?
Answer: 3.31 µM

Question: And the LC50 [30]?
Answer: 41.7 µM

Question: What about the TGI [30] of the same molecule?
Answer: 12.9 µM

Question: And the GI50 [31]?
Answer: 2.05 µM

Question: What about the TGI [31] of the same molecule?
Answer: 5.36 µM

Question: What about the CC50 [31, 36] of the same molecule?
Answer: > 100 µM

Question: And the GI50 [32]?
Answer: 1.77 µM

Question: What about the LC50 (concentration killing 50% of cells) [32] of the same molecule?
Answer: 97.8 µM

Question: And the TGI [32]?
Answer: 5.24 µM

Question: And the GI50 [33]?
Answer: 1.7 µM

Question: And the TGI [33]?
Answer: 4.55 µM

Question: What about the CC50 [33, 36] of the same molecule?
Answer: 20.6 µM

Question: What about the inhibition [34] of the same molecule?
Answer: 91%

Question: For `NS(=O)(=O)c1ccc(Nc2nccc(Nc3ccc4[nH]ncc4c3)n2)cc1`, which Activity [35] is on record?
Answer: 34.6%
